The values below are quoted from earlier work in patent US20250066562A1, “METHOD AND MATERIAL FOR DIFFERENTIATED SEQUESTRATION OF SUBSTANCES OF DIFFERENT SUBSTANCE GROUPS WITH THE AID OF HYDROGELS CONTAINING SULPHATED OR SULPHONATED COMPONENTS” (LEIBNIZ-INSTITUT FÜR POLYMERFORSCHUNG E.V., priority 2017, published 2025).

One data set addresses antithrombin (Homo sapiens, UniProt P01008). Conditions: according to Freudenberg et al., J. Controlled Release 220 (2015) 79-88.
The target of another data set is thrombin (Homo sapiens, UniProt P00734). Conditions: according to Freudenberg et al., J. Controlled Release 220 (2015) 79-88.

antithrombin, sequence (P01008 33-464): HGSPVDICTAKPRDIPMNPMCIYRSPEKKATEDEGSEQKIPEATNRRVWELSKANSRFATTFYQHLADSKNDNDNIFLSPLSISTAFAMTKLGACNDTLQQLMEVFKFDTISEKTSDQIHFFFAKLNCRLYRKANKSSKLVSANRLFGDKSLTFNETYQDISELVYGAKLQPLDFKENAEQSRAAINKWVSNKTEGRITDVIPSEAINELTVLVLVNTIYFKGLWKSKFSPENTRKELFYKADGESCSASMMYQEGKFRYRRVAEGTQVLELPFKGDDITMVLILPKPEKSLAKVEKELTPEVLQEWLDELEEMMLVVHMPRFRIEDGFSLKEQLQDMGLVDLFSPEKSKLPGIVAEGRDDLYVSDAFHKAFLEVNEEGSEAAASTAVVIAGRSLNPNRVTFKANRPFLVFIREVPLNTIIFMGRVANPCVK

Consider Heparin [GB1], for which the Interaction with antithrombin result on antithrombin was “interaction”. Further, the Interaction with thrombin result at thrombin is reported as “interaction”.
On to N-desulfated Heparin [GB2], for which, at antithrombin, the Interaction with antithrombin result is reported as “lack of interaction”. Further, the Interaction with thrombin result on thrombin is recorded as “lack of interaction”.
